Experimental data published in ChEMBL document CHEMBL1129821, “Synthesis and biological evaluation of non-polyene analogs of amphotericin B” (1997).
≈ marks a conversion by molar mass, not a printed value.

Assays:
Candida albicans = test: Minimum inhibitory concentration required for antifungal activity against Candida albicans(16820); format: functional
Cryptococcus neoformans = test: Minimum inhibitory concentration required for antifungal activity against Cryptococcus neoformans (271A); format: functional

For COC(=O)[C@H]1[C@@H]2C[C@@H](O[C@@H]3O[C@H](C)[C@@H](O)[C@H](N)[C@@H]3O)/C=C/C=C/C=C/C=C/C=C/C=C/C=C/[C@H](C)[C@@H](O)[C@@H](C)[C@H](C)OC(=O)C[C@H](O)C[C@H](O)CC[C@@H](O)[C@H](O)C[C@H](O)C[C@](O)(C[C@@H]1O)O2 [AMPHOTERICIN B ME ESTER], which MIC (Candida albicans) is on record?
The MIC was 8000 µg/mL (≈ 8.53 mM).

And the MIC (Cryptococcus neoformans)?
Its MIC is 8000 µg/mL (≈ 8.53 mM).
